# Laboratory results reported in ChEMBL document CHEMBL1144641, “DNA cleavage promoted by 2,9-dimethyl-4,7-diazadecane-2,9-dithiol (DDD) derivatives” (Bioorg Med Chem Lett, 2007).
# Calls of active or inactive are those of the source. No cut-off for these calls is given here.
# Legend:
# Type in all cases: nucleic-acid assay
# Conditions in all cases: Escherichia coli
# Nucleic Acid [1] = test: DNA cleavage activity assessed as conversion of supercoiled pUC19 plasmid to nicked form at pH 7 after 24 hrs
# Nucleic Acid [2] = test: DNA cleavage activity assessed as conversion of supercoiled pUC19 plasmid to nicked form at pH 7 after 1 hr
# Nucleic Acid [3] = test: DNA cleavage activity assessed as conversion of supercoiled pUC19 plasmid to nicked form at pH 7 after 24 hrs in presence of hydrogen peroxide
# Nucleic Acid [4] = test: DNA cleavage activity assessed as conversion of supercoiled pUC19 plasmid to nicked form at pH 7 after 24 hrs in presence of sodium iodide
# Nucleic Acid [5] = test: DNA cleavage activity assessed as conversion of supercoiled pUC19 plasmid to nicked form at pH 7 after 24 hrs in presence of sodium azide
# Nucleic Acid [6] = test: DNA cleavage activity assessed as conversion of supercoiled pUC19 plasmid to nicked form at pH 7 after 12 hrs
# Nucleic Acid [7] = test: DNA cleavage activity assessed as conversion of supercoiled pUC19 plasmid to nicked form at 0.286 mM at pH 7 after 24 hrs
# Nucleic Acid [8] = test: DNA cleavage activity assessed as conversion of supercoiled pUC19 plasmid to nicked form at pH 7 after 24 hrs in presence of tertiary-butyl alcohol
SMILES,Activity (Nucleic Acid [1]),Activity (Nucleic Acid [2]),Activity (Nucleic Acid [3]),Activity (Nucleic Acid [4]),Activity (Nucleic Acid [5]),Activity (Nucleic Acid [6]),Activity (Nucleic Acid [7]),Activity (Nucleic Acid [8])
CC1CC(C)CN(CCN(CCNCC(C)(C)S)CC(C)(C)S)C1 (stereo not given),48.2%,,,,,,,
CC(C)(S)CNCCN(CCN1CCCCC1)CC(C)(C)S,74.8%,,,,,,,
CC1CCN(CCN(CCNCC(C)(C)S)CC(C)(C)S)CC1,100%,30.9%,Active,inactive,inactive,40.4%,Active,inactive
